From US8933232B2, “1,3,4-oxadiazole and 1,3,4-thiadiazole beta-lactamase inhibitors” (priority 2012, dated 2015)
Where a name gives a salt, the structure may show the parent alone.

Tested on: bacterial strains that express KPC β-lactamases
Test: Synergy MIC / standard BLI potentiation MIC assay against strains expressing KPC β-lactamases
Assay type: cell-based
Conditions: in the presence of a β-lactam; comparator Avibactam
Experimental: The experimental protocol was performed according to Clinical and Laboratory Standards Institute (CLSI) guidelines with modifications as described below (CLSI guidelines can be derived from the CLSI document M07-A9 published in January 2012: “Methods for Dilution Antimicrobial Susceptibility Tests for Bacteria That Grow Aerobically; Approved Standard-Ninth Edition”).
To prepare for MIC testing, frozen glycerol stocks of clinical isolates (Klebsiella pneumoniae, Eschericia coli, Enterobacter spp, Citrobacter spp, or Pseudomonas aeruginosa) were used to streak for isolated colonies on rich, non-selective, tryptic soy agar containing 5% sheep's blood (TSAB). Frozen glycerol stocks of laboratory engineered, isogenic E. coli strains, which contain cloned β-lactamase expressing plasmids were used to streak for isolated colonies on rich, selective LB agar supplemented with 25 μg/mL tetracycline to maintain the plasmid. All strains were incubated at 37° C. for 18-24 hrs.
On the day of testing, primary cultures were started by scraping off 5-10 colonies from the TSAB plates containing clinical strains or the tetracycline supplemented LB plates containing engineered strains. The clinical strain material was suspended in ˜5 mL of cation adjusted Mueller Hinton Broth (CAMHB) in 14 mL culture tubes. The engineered strain material was suspended in CAMHB (supplemented with 25 μg/mL tetracycline) in 14 mL culture tubes. All strains were incubated at 37° C. with aeration (200 rpm) for ˜2 hrs until the optical density at 600 nm (OD600) was >0.1.
The two compound components of the assay were each diluted in CAMHB and added to the 96-well broth microdilution assay plates. 50 μL of the β-lactam was added to each well of the assay plate in 2-fold dilutions with final concentrations ranging from 128 to 0.13 μg/mL. 25 μL, of the BLI compound was added to all wells in the broth microdilution plates at a final concentration of 4 μg/mL. Inoculum cultures were prepared by standardizing the primary cultures to OD600=0.1 and then adding 20 μL of the adjusted primary culture per 1 mL CAMHB for clinical strains or CAMHB (supplemented with tetracycline at 100 μg/mL) for engineered strains, so that the final inoculum density was ˜10^5 colony forming units per milliliter. Diluted inoculum cultures were used to inoculate 25 μl, per well in 96-well broth microdilution assay plates. The final volume of each well was 100 μL and contained a β-lactam at different concentrations, a BLIcompound at 4 μg/mL concentration, the bacterial culture at an OD600 of approximately 0.001 and when necessary tetracycline at 25 μg/mL.
Plates were incubated for 18-20 hours at 37° C. with aeration (200 rpm). Following incubation, growth was confirmed visually placing plates over a viewing apparatus (stand with a mirror underneath) and then OD600 was measured using a SpectraMax 340PC384 plate reader (Molecular Devices, Sunnyvale, Calif.). Growth was defined as turbidity that could be detected with the naked eye or achieving minimum OD600 of 0.1. MIC values were defined as the lowest concentration producing no visible turbidity.
The synergy MIC (sMIC) assay determines the concentration of the BLI required to potentiate the activity of a fixed concentration of a β-lactam antibiotic against β-lactamase producing bacterial strains. The experimental protocol was performed according to Clinical and Laboratory Standards Institute (CLSI) guidelines with modifications as described below (CLSI guidelines can be derived from the CLSI document M07-A9 published in January 2012: “Methods for Dilution Antimicrobial Susceptibility Tests for Bacteria That Grow Aerobically; Approved Standard-Ninth Edition”). […]

N=C(N)NC[C@H](O)c1nnc([C@@H]2CC[C@@H]3CN2C(=O)N3OS(=O)(=O)O)o1 [Compound 732, (2S,5R)-2-(5-((S)-2-guanidino-1-hydroxyethyl)-1,3,4-oxadiazol-2-yl)-7-oxo-1,6-diazabicyclo[3.2.1]octan-6-yl hydrogen sulfate]
more active than Avibactam for at least one bacterial strain that expresses KPC β-lactamase and/or better spectrum of activity against KPC strains: more active than Avibactam

CNCCCc1nnc([C@@H]2CC[C@@H]3CN2C(=O)N3OS(=O)(=O)O)o1 [Compound 734, 2S,5R)-2-(5-(3-(methylamino)propyl)-1,3,4-oxadiazol-2-yl)-7-oxo-1,6-diazabicyclo[3.2.1]octan-6-yl hydrogen sulfate]
more active than Avibactam for at least one bacterial strain that expresses KPC β-lactamase and/or better spectrum of activity against KPC strains: more active than Avibactam

NCCCCc1nnc([C@@H]2CC[C@@H]3CN2C(=O)N3OS(=O)(=O)O)o1 [Compound 735, (2S,5R)-2-(5-(4-aminobutyl)-1,3,4-oxadiazol-2-yl)-7-oxo-1,6-diazabicyclo[3.2.1]octan-6-yl hydrogen sulfate]
more active than Avibactam for at least one bacterial strain that expresses KPC β-lactamase and/or better spectrum of activity against KPC strains: more active than Avibactam

O=C1N2C[C@@H](CC[C@H]2c2nnc(CCNCCO)o2)N1OS(=O)(=O)O [Compound 736, (2S,5R)-2-(5-(2-((2-hydroxyethyl)amino)ethyl)-1,3,4-oxadiazol-2-yl)-7-oxo-1,6-diazabicyclo[3.2.1]octan-6-yl hydrogen sulfate]
more active than Avibactam for at least one bacterial strain that expresses KPC β-lactamase and/or better spectrum of activity against KPC strains: more active than Avibactam

CC(C)(N)Cc1nnc([C@@H]2CC[C@@H]3CN2C(=O)N3OS(=O)(=O)O)o1 [Compound 737, (2S,5R)-2-(5-(2-amino-2-methylpropyl)-1,3,4-oxadiazol-2-yl)-7-oxo-1,6-diazabicyclo[3.2.1]octan-6-yl hydrogen sulfate]
more active than Avibactam for at least one bacterial strain that expresses KPC β-lactamase and/or better spectrum of activity against KPC strains: more active than Avibactam

N=C(N)Nc1nnc([C@@H]2CC[C@@H]3CN2C(=O)N3OS(=O)(=O)O)o1 [Compound 738, (2S,5R)-2-(5-guanidino-1,3,4-oxadiazol-2-yl)-7-oxo-1,6-diazabicyclo[3.2.1]octan-6-yl hydrogen sulfate]
more active than Avibactam for at least one bacterial strain that expresses KPC β-lactamase and/or better spectrum of activity against KPC strains: more active than Avibactam

N=C(N)NC1(Cc2nnc([C@@H]3CC[C@@H]4CN3C(=O)N4OS(=O)(=O)O)o2)CC1 [Compound 739, (2S,5R)-2-(5-((1-guanidinocyclopropyl)methyl)-1,3,4-oxadiazol-2-yl)-7-oxo-1,6-diazabicyclo[3.2.1]octan-6-yl hydrogen sulfate]
more active than Avibactam for at least one bacterial strain that expresses KPC β-lactamase and/or better spectrum of activity against KPC strains: more active than Avibactam

O=C1N2C[C@@H](CC[C@H]2c2nnc([C@H]3[C@@H]4CNC[C@@H]43)o2)N1OS(=O)(=O)O [Compound 740, (2S,5R)-2-(5-(3-azabicyclo[3.1.0]hexan-6-yl)-1,3,4-oxadiazol-2-yl)-7-oxo-1,6-diazabicyclo[3.2.1]octan-6-yl hydrogen sulfate]
more active than Avibactam for at least one bacterial strain that expresses KPC β-lactamase and/or better spectrum of activity against KPC strains: more active than Avibactam

N=C(N)N1CC(Cc2nnc([C@@H]3CC[C@@H]4CN3C(=O)N4OS(=O)(=O)O)o2)C1 [Compound 741, (2S,5R)-2-(5-((1-carbamimidoylazetidin-3-yl)methyl)-1,3,4-oxadiazol-2-yl)-7-oxo-1,6-diazabicyclo[3.2.1]octan-6-yl hydrogen sulfate]
more active than Avibactam for at least one bacterial strain that expresses KPC β-lactamase and/or better spectrum of activity against KPC strains: more active than Avibactam

O=C1N2C[C@@H](CC[C@H]2c2nnc(CCC3CNC3)o2)N1OS(=O)(=O)O [Compound 742, (2S,5R)-2-(5-(2-(azetidin-3-yl)ethyl)-1,3,4-oxadiazol-2-yl)-7-oxo-1,6-diazabicyclo[3.2.1]octan-6-yl hydrogen sulfate]
more active than Avibactam for at least one bacterial strain that expresses KPC β-lactamase and/or better spectrum of activity against KPC strains: more active than Avibactam

O=C1N2C[C@@H](CC[C@H]2c2nnc(CCCC3CNC3)o2)N1OS(=O)(=O)O [Compound 743, (2S,5R)-2-(5-(3-(azetidin-3-yl)propyl)-1,3,4-oxadiazol-2-yl)-7-oxo-1,6-diazabicyclo[3.2.1]octan-6-yl hydrogen sulfate]
more active than Avibactam for at least one bacterial strain that expresses KPC β-lactamase and/or better spectrum of activity against KPC strains: more active than Avibactam

O=C1N2C[C@@H](CC[C@H]2c2nnc(COC3CNC3)o2)N1OS(=O)(=O)O [Compound 744, (2S,5R)-2-(5-((azetidin-3-yloxy)methyl)-1,3,4-oxadiazol-2-yl)-7-oxo-1,6-diazabicyclo[3.2.1]octan-6-yl hydrogen sulfate]
more active than Avibactam for at least one bacterial strain that expresses KPC β-lactamase and/or better spectrum of activity against KPC strains: more active than Avibactam

O=C1N2C[C@@H](CC[C@H]2c2nnc(CCNC3CNC3)o2)N1OS(=O)(=O)O [Compound 745, (2S,5R)-2-(5-(2-(azetidin-3-ylamino)ethyl)-1,3,4-oxadiazol-2-yl)-7-oxo-1,6-diazabicyclo[3.2.1]octan-6-yl hydrogen sulfate]
more active than Avibactam for at least one bacterial strain that expresses KPC β-lactamase and/or better spectrum of activity against KPC strains: more active than Avibactam

N=C(N)N1CC(NCc2nnc([C@@H]3CC[C@@H]4CN3C(=O)N4OS(=O)(=O)O)o2)C1 [Compound 746, (2S,5R)-2-(5-(((1-carbamimidoylazetidin-3-yl)amino)methyl)-1,3,4-oxadiazol-2-yl)-7-oxo-1,6-diazabicyclo[3.2.1]octan-6-yl hydrogen sulfate]
more active than Avibactam for at least one bacterial strain that expresses KPC β-lactamase and/or better spectrum of activity against KPC strains: more active than Avibactam

N=C(N)N[C@H]1C[C@@H](c2nnc([C@@H]3CC[C@@H]4CN3C(=O)N4OS(=O)(=O)O)o2)C1 [Compound 749, 2S,5R)-2-(5-((1s,3R)-3-guanidinocyclobutyl)-1,3,4-oxadiazol-2-yl)-7-oxo-1,6-diazabicyclo[3.2.1]octan-6-yl hydrogen sulfate]
more active than Avibactam for at least one bacterial strain that expresses KPC β-lactamase and/or better spectrum of activity against KPC strains: more active than Avibactam

O=C1N2C[C@@H](CC[C@H]2c2nnc(C3CC4(CNC4)C3)o2)N1OS(=O)(=O)O [Compound 750, (2S,5R)-2-(5-(2-azaspiro[3.3]heptan-6-yl)-1,3,4-oxadiazol-2-yl)-7-oxo-1,6-diazabicyclo[3.2.1]octan-6-yl hydrogen sulfate]
more active than Avibactam for at least one bacterial strain that expresses KPC β-lactamase and/or better spectrum of activity against KPC strains: more active than Avibactam

N[C@H]1C[C@H](Cc2nnc([C@@H]3CC[C@@H]4CN3C(=O)N4OS(=O)(=O)O)o2)C1 [Compound 751, (2S,5R)-2-(5-(((1r,3S)-3-aminocyclobutyl)methyl)-1,3,4-oxadiazol-2-yl)-7-oxo-1,6-diazabicyclo[3.2.1]octan-6-yl hydrogen sulfate]
more active than Avibactam for at least one bacterial strain that expresses KPC β-lactamase and/or better spectrum of activity against KPC strains: more active than Avibactam

N=C(N)NC1CC(Cc2nnc([C@@H]3CC[C@@H]4CN3C(=O)N4OS(=O)(=O)O)o2)C1 (stereo partly drawn) [Compound 752, (2S,5R)-2-(5-(β-guanidinocyclobutyl)methyl)-1,3,4-oxadiazol-2-yl)-7-oxo-1,6-diazabicyclo[3.2.1]octan-6-yl hydrogen sulfate]
more active than Avibactam for at least one bacterial strain that expresses KPC β-lactamase and/or better spectrum of activity against KPC strains: more active than Avibactam

N[C@H]1C[C@H](CCc2nnc([C@@H]3CC[C@@H]4CN3C(=O)N4OS(=O)(=O)O)o2)C1 [Compound 753, (2S,5R)-2-(5-(2-((1r,3R)-3-aminocyclobutyl)ethyl)-1,3,4-oxadiazol-2-yl)-7-oxo-1,6-diazabicyclo[3.2.1]octan-6-yl hydrogen sulfate]
more active than Avibactam for at least one bacterial strain that expresses KPC β-lactamase and/or better spectrum of activity against KPC strains: more active than Avibactam

N[C@H]1C[C@@H](CCc2nnc([C@@H]3CC[C@@H]4CN3C(=O)N4OS(=O)(=O)O)o2)C1 [Compound 754, (2S,5R)-2-(5-(2-((1s,3S)-3-aminocyclobutyl)ethyl)-1,3,4-oxadiazol-2-yl)-7-oxo-1,6-diazabicyclo[3.2.1]octan-6-yl hydrogen sulfate]
more active than Avibactam for at least one bacterial strain that expresses KPC β-lactamase and/or better spectrum of activity against KPC strains: more active than Avibactam
